From US20250109121A1, “POTENT AND SELECTIVE SMARCA2 DEGRADING CHIMERIC MOLECULES AS CANCER THERAPEUTICS” (BOARD OF REGENTS, THE UNIVERSITY OF TEXAS SYSTEM, priority 2021, published 2025)
pIC50: −log10 of the molar value. Read-outs that look alike come from different tables or passages of the source.

Tests used:
HCC827 = assay: Cell proliferation (colony assay) IC50; format: cell-based; conditions: Homo sapiens; HCC827, wild-type SMARCA4
HCC2279 = assay: Cell proliferation (colony assay) IC50; format: cell-based; conditions: HCC2279, wild-type SMARCA4
HCC366 = assay: Cell proliferation (colony assay) IC50; format: cell-based; conditions: HCC366, mutant SMARCA4
A549 = assay: Cell proliferation (colony assay) IC50; format: cell-based; conditions: Homo sapiens; A549, mutant SMARCA4
H2023 = assay: Cell proliferation (colony assay) IC50; format: cell-based; conditions: NCI-H2023; H2023, mutant SMARCA4
H2126 = assay: Cell proliferation (colony assay) IC50; format: cell-based; conditions: Homo sapiens, NCI-H2126; H2126, mutant SMARCA4
H1793 = assay: Cell proliferation (colony assay) IC50; format: cell-based; conditions: Homo sapiens, NCI-H1793; H1793, mutant SMARCA4
wild-type SMARCA4 cells = assay: Colony assay / cell proliferation, wild-type SMARCA4 cell lines as a group; format: cell-based
Method: Cell lines with wild-type SMARCA4 (HCC44, H2122, H1792 and H1975) and cell lines with mutant SMARCA4 (H1693, HCC515, H322, and H1299) were seeded in appropriate dilutions to form colonies in about 1-3 weeks. Cells were treated with ACBI1 or Compound 101 at concentrations of 0.001, 0.01, 0.1, 1, and 10 μm. Colonies were fixed with glutaraldehyde (6% v/v), stained with crystal violet (0.5% w/v) and the percent area of colonies was determined (FIGS. 3A and 3B). In cell lines with wild-type SMARCA4, inhibition of colony growth was more pronounced after treatment with ACBI1 than Compound 101 (FIG. 3A).

SMARCA2 [1] = target: T1, SMARCA2 (Homo sapiens, UniProt P51531); assay: SMARCA2 degradation in cell lines, western blot; format: cell-based
T1 sequence (P51531 whole entry): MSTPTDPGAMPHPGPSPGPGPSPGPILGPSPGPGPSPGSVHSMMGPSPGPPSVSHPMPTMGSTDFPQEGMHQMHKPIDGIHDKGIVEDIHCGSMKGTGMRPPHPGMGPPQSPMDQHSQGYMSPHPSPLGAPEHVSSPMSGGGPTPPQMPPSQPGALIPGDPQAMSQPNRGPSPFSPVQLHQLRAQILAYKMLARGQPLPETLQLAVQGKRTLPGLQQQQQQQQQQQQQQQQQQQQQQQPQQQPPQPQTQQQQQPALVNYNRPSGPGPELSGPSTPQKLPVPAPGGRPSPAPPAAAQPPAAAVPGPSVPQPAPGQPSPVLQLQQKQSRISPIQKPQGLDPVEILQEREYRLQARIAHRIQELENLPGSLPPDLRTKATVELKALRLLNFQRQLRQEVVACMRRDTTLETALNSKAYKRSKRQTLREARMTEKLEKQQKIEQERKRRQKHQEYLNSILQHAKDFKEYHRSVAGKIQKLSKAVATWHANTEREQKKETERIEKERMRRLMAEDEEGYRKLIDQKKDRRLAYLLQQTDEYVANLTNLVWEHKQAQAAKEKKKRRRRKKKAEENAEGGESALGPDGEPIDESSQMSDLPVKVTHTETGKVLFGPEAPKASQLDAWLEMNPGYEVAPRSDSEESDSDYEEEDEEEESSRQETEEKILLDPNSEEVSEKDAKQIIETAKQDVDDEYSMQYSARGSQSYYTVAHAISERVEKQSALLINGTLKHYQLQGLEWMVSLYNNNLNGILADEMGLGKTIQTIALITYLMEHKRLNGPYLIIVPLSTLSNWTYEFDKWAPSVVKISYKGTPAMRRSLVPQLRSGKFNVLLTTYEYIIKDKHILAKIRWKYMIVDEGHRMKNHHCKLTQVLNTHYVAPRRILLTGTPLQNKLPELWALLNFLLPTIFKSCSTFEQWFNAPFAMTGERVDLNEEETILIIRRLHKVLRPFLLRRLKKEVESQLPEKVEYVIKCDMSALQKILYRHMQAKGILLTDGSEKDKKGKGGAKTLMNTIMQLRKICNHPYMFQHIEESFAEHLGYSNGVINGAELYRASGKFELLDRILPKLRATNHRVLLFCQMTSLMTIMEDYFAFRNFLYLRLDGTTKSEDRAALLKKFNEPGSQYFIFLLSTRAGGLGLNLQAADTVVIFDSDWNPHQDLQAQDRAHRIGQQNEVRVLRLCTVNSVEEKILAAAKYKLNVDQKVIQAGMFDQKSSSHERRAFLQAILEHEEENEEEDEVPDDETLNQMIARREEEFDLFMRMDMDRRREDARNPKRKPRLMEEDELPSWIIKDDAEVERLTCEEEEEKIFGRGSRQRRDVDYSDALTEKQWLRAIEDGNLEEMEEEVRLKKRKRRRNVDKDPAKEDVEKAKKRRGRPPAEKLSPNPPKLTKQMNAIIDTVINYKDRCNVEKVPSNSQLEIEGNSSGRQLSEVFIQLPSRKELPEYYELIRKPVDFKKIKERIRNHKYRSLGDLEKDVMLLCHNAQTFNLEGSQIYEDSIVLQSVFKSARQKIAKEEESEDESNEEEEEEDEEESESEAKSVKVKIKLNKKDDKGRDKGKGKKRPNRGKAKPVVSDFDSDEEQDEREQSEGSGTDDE

SMARCA2 [2] = target: T1, SMARCA2; assay: Immunohistochemistry of SMARCA2 in H1299 xenograft tumors; format: in vivo; parameters: from tissue; host or cells: H1299 xenograft tumour tissue from female NCR Nude mice; conditions: NCR Nude mice, 200 mg/kg intraperitoneally once per day for four days
Method: NCR Nude mice were injected with vehicle or SMARCA2 degrader Compound 101 (200 mg/kg) once per day for four consecutive days intraperitoneally. Tumor tissues were harvested 24 hours after the last dose and fixed in formalin for 24 hours, paraffin embedded, sectioned and stained according to standard procedures. Briefly, endogenous peroxidases were inactivated by 3% hydrogen peroxide. Non-specific signals were blocked using 3% BSA, 10% goat serum in 0.1% Triton X-100. After antigen retrieval in citrate buffer, slides were stained overnight at 4° C. using SMARCA2 antibodies (Cell Signaling, D9E8B1:2000). After overnight incubation, the slides were washed and incubated with secondary antibody (HRP-polymers, Biocare Medical) for 30 min at room temperature. The slides were washed three times and stained with DAB substrate (ThermoFisher Scientific). The slides were then counterstained with haematoxylin and mounted with mounting medium. The slides were imaged by Vectra microscope and the signal intensity and percentage of cells positive for SMARCA2 was quantified using Vectra 3.0.7 software.

`Nc1nnc(-c2ccccc2O)cc1N1CCN(Cc2ccc(OCCOCCNc3cccc4c3C(=O)N(C3CCC(=O)NC3=O)C4=O)c(F)c2)CC1` (centres unmarked) [Compound 101] gave a pIC50 (HCC827) of under 5.00, a pIC50 (HCC2279) of under 5.00 and a pIC50 (HCC366) of 6.62. The pIC50 (A549) was under 5.00, the pIC50 (H2023) was 6.32 and the pIC50 (H2126) was about 7.70. It also gave a pIC50 (H1793) of 6.05, an inhibition at 0.1 µM (wild-type SMARCA4 cells; read-out: inhibition at 100 nM in wild-type SMARCA4 cells (see FIG. 3D)) of under 10% and a pIC50 (wild-type SMARCA4 cells; wild-type SMARCA4 cells (Table 4), read-out: IC50, span over cell lines) of 5.00 to 6.01. The Dmax (SMARCA2 [1]; A549, A549, mutant SMARCA4 cell line, read-out: SMARCA2 Dmax (%)) was 96%, the DC50 (SMARCA2 [1]; A549, mutant SMARCA4 cell line) was 57 nM and the DC50 (SMARCA2 [1]; H322, mutant SMARCA4 cell line) was 27 nM. For the same compound, the DC50 (SMARCA2 [1]; H838, mutant SMARCA4 cell line) was 26 nM, the DC50 (SMARCA2 [1]; H1693, mutant SMARCA4 cell line) was 113 nM and the DC50 (SMARCA2 [1]; H1793, mutant SMARCA4 cell line) was 2 nM. It also gave a DC50 (SMARCA2 [1]; H2023, mutant SMARCA4 cell line) of 42 nM, a DC50 (SMARCA2 [1]; H2126, mutant SMARCA4 cell line) of 10 nM and a DC50 (SMARCA2 [1]; H2228, wild-type SMARCA4 cell line) of 106 nM. It also gave a DC50 (SMARCA2 [1]; H2935, mutant SMARCA4 cell line) of 8 nM, a Dmax (SMARCA2 [1]; H2935, mutant SMARCA4 cell line, read-out: SMARCA2 Dmax (%)) of 83% and a Dmax (SMARCA2 [1]; HCC44, HCC44, wild-type SMARCA4 cell line, read-out: SMARCA2 Dmax (%)) of 99%. The DC50 (SMARCA2 [1]; HCC44, wild-type SMARCA4 cell line) was 69 nM, the Dmax (SMARCA2 [1]; HCC366, HCC366, mutant SMARCA4 cell line, read-out: SMARCA2 Dmax (%)) was 99% and the DC50 (SMARCA2 [1]; HCC366, mutant SMARCA4 cell line) was 13 nM. For the same compound, the Dmax (SMARCA2 [1]; HCC515, HCC515, mutant SMARCA4 cell line, read-out: SMARCA2 Dmax (%)) was 81%, the DC50 (SMARCA2 [1]; HCC515, mutant SMARCA4 cell line) was 83 nM and the Dmax (SMARCA2 [1]; HCC827, HCC827, wild-type SMARCA4 cell line, read-out: SMARCA2 Dmax (%)) was 83%. The DC50 (SMARCA2 [1]; HCC827, wild-type SMARCA4 cell line) was 70 nM, the DC50 (SMARCA2 [1]; HCC2279, wild-type SMARCA4 cell line) was 32 nM and the Dmax (SMARCA2 [1]; HCC2279, wild-type SMARCA4 cell line, read-out: SMARCA2 Dmax (%)) was 99%. The DC50 (SMARCA2 [1]; HOP62, wild-type SMARCA4 cell line) was 33 nM, the Dmax (SMARCA2 [1]; HOP-62, HOP62, wild-type SMARCA4 cell line, read-out: SMARCA2 Dmax (%)) was 99% and the Dmax (SMARCA2 [1]; NCI-H322, H322, mutant SMARCA4 cell line, read-out: SMARCA2 Dmax (%)) was 99%. For the same compound, the Dmax (SMARCA2 [1]; NCI-H441, H441, wild-type SMARCA4 cell line, read-out: SMARCA2 Dmax (%)) was 67%, the Dmax (SMARCA2 [1]; NCI-H838, H838, mutant SMARCA4 cell line, read-out: SMARCA2 Dmax (%)) was 98% and the Dmax (SMARCA2 [1]; NCI-H1693, H1693, mutant SMARCA4 cell line, read-out: SMARCA2 Dmax (%)) was 84%. It also gave a Dmax (SMARCA2 [1]; NCI-H1792, H1792, wild-type SMARCA4 cell line, read-out: SMARCA2 Dmax (%)) of 89%, a Dmax (SMARCA2 [1]; NCI-H1793, H1793, mutant SMARCA4 cell line, read-out: SMARCA2 Dmax (%)) of 99% and a Dmax (SMARCA2 [1]; NCI-H1975, H1975, wild-type SMARCA4 cell line, maximum degradation as percentage of DMSO control, read-out: SMARCA2 Dmax (%)) of 93%. It also gave a Dmax (SMARCA2 [1]; NCI-H2023, H2023, mutant SMARCA4 cell line, read-out: SMARCA2 Dmax (%)) of 99%, a Dmax (SMARCA2 [1]; NCI-H2122, H2122, wild-type SMARCA4 cell line, read-out: SMARCA2 Dmax (%)) of 94% and a Dmax (SMARCA2 [1]; NCI-H2126, H2126, mutant SMARCA4 cell line, read-out: SMARCA2 Dmax (%)) of 99%. For the same compound, the Dmax (SMARCA2 [1]; NCI-H2228, H2228, wild-type SMARCA4 cell line, read-out: SMARCA2 Dmax (%)) was 82%, the Dmax (SMARCA2 [1]; mutant SMARCA4 cells (Table 5), read-out: SMARCA2 Dmax, span over cell lines) was 81 to 99% and the Dmax (SMARCA2 [1]; wild-type SMARCA4 cells (Table 4), read-out: SMARCA2 Dmax, span over cell lines) was 82 to 99%. For the same compound, the “SMARCA2 in tumor tissue by immunohistochemistry (in words)” value (SMARCA2 [2]) was “significant reduction in SMARCA2” and the “reduction in the percentage of SMARCA2 positive cells” value (SMARCA2 [2]; tumor harvested 24 hours after last dose, versus vehicle) was “more than 50%”.
